Assay results taken from patent US20100267561A1, “HERBICIDAL PYRIDAZINONE DERIVATIVES” (priority 2007, published 2010).

What was measured:
Type in all cases: in vivo
[1] = tested on: umbrella sedge (Cyperus difformis); assay: Test B flooded paddy test plant response
Summary of the method: (§1)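 Step one: raise plants to 2 leaves. Step two: flood pots 3 cm over the soil and apply compound into the water, keeping this depth. Step three: after 13–15 greenhouse days, score visually versus controls, 0–100, where 100 means complete control.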

[2] = tested on: barnyardgrass (Echinochloa crus-galli); assay: Test B flooded paddy test plant response
Summary of the method: as §1

rice (Oryza sativa) = assay: Test B flooded paddy test plant response
Summary of the method: as §1

[3] = tested on: ducksalad (Heteranthera limosa); assay: Test B flooded paddy test plant response
Summary of the method: as §1

[4] = tested on: Russian thistle (Salsola iberica); assay: Test B pre-/postemergence plant response; conditions: Preemergence
Summary of the method: (§2)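 Seeds were sown and sprayed preemergence, while plants at 2 to 18 cm (1- to 4-leaf stage) got postemergence sprays. Compounds were formulated in a non-phytotoxic solvent mixture with surfactant. After 13 to 15 days in a greenhouse, injury was rated visually against untreated controls, 0 (no effect) to 100 (complete control).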

[5] = tested on: green foxtail (Setaria viridis); assay: Test B pre-/postemergence plant response; conditions: for Foxtail, Green plant response rating: 8 g ai/ha
Summary of the method: as §2

corn (Zea mays) = assay: Test B pre-/postemergence plant response; conditions: for Corn plant response rating: 8 g ai/ha
Summary of the method: as §2

[6] = tested on: eastern black (E.B.) nightshade (Solanum ptycanthum); assay: Test B pre-/postemergence plant response; conditions: Preemergence
Summary of the method: as §2

[7] = tested on: woolly cupgrass (Eriochloa villosa); assay: Test B pre-/postemergence plant response; conditions: for Cupgrass, Woolly plant response rating: 8 g ai/ha
Summary of the method: as §2

[8] = tested on: large crabgrass (Digitaria sanguinalis); assay: Test B pre-/postemergence plant response; conditions: for Crabgrass, Large plant response rating: 8 g ai/ha
Summary of the method: as §2

[9] = tested on: downy bromegrass (Bromus tectorum); assay: Test B pre-/postemergence plant response; conditions: for Bromegrass, Downy plant response rating: 8 g ai/ha
Summary of the method: as §2

[10] = tested on: pigweed (Amaranthus retroflexus); assay: Test B pre-/postemergence plant response; conditions: for Pigweed plant response rating: 8 g ai/ha
Summary of the method: as §2

[11] = tested on: giant foxtail (Setaria faberii); assay: Test B pre-/postemergence plant response; conditions: for Foxtail, Giant plant response rating: 8 g ai/ha
Summary of the method: as §2

wild oat (Avena fatua) = assay: Test B pre-/postemergence plant response; conditions: for Oat, Wild plant response rating: 8 g ai/ha
Summary of the method: as §2

[12] = Flood (flooded paddy test), 62 g ai/ha, scale 0 to 100, 0 no effect, 100 complete control
[13] = Flood (flooded paddy test), 125 g ai/ha, scale 0 to 100, 0 no effect, 100 complete control
[14] = Flood (flooded paddy test), 250 g ai/ha, scale 0 to 100, 0 no effect, 100 complete control
[15] = Flood, 31 g ai/ha, scale 0 to 100
[16] = 16 g ai/ha, scale 0 to 100 (0 no effect, 100 complete control)
[17] = 31 g ai/ha, scale 0 to 100 (0 no effect, 100 complete control)
[18] = Postemergence, 16 g ai/ha, scale 0 to 100
[19] = Postemergence, 31 g ai/ha, scale 0 to 100, 0 no effect, 100 complete control
[20] = Postemergence, 62 g ai/ha, scale 0 to 100, 0 no effect, 100 complete control
[21] = Preemergence, 16 g ai/ha, scale 0 to 100 (0 no effect, 100 complete control)
[22] = Preemergence, 31 g ai/ha, 0 to 100 scale, 0 no effect, 100 complete control
[23] = Preemergence, 62 g ai/ha, scale 0 to 100
[24] = Preemergence, 31 g ai/ha, scale 0 to 100 (0 no effect, 100 complete control)

CCc1cc(-c2ccc(Cl)cc2)nn1-c1c(OC(=O)C(C)(C)C)cnn(C)c1=O [Compound 40]
40: Plant response rating, Rice (rice (Oryza sativa); [12])
100: Plant response rating, Barnyardgrass [2, 13] | Plant response rating, Barnyardgrass [2, 14] | Plant response rating, Foxtail, Green [5, 19] | Plant response rating, Foxtail, Green [5, 20] | Plant response rating, Foxtail, Green [5, 21] | Plant response rating, Foxtail, Green [5, 22] | Plant response rating, Foxtail, Green [5, 23] | Plant response rating, Corn (corn (Zea mays); [19]) | Plant response rating, Corn (corn (Zea mays); [20]) | Plant response rating, Cupgrass, Woolly [7, 19] | Plant response rating, Cupgrass, Woolly [7, 20] | Plant response rating, Cupgrass, Woolly [7, 21] | Plant response rating, Cupgrass, Woolly [7, 22] | Plant response rating, Cupgrass, Woolly [7, 23] | Plant response rating, Crabgrass, Large [8, 20] | Plant response rating, Crabgrass, Large [8, 21] | Plant response rating, Crabgrass, Large [8, 22] | Plant response rating, Crabgrass, Large [8, 23] | Plant response rating, Bromegrass, Downy [9, 20] | Foxtail, Giant plant response rating ([11]; postemergence, 0-100 scale) | Plant response rating, Foxtail, Giant [11, 18] | Plant response rating, Foxtail, Giant [11, 19] | Plant response rating, Foxtail, Giant [11, 20] | Plant response rating, Foxtail, Giant [11, 21] | Plant response rating, Foxtail, Giant [11, 22] | Plant response rating, Foxtail, Giant [11, 23] | Foxtail, Giant plant response rating ([11]; Preemergence, scale 0 to 100) | Plant response rating, Oat, Wild (wild oat (Avena fatua); [18]) | Plant response rating, Oat, Wild (wild oat (Avena fatua); [19]) | Plant response rating, Oat, Wild (wild oat (Avena fatua); [20])
15: Cupgrass, Woolly plant response rating ([7]; Preemergence, scale 0 to 100)
90: Foxtail, Green plant response rating ([5]; Preemergence, scale 0 to 100) | Plant response rating, Bromegrass, Downy [9, 23] | Plant response rating, Oat, Wild (wild oat (Avena fatua); [24])
95: Plant response rating, Foxtail, Green [5, 18] | Plant response rating, Corn (corn (Zea mays); [23]) | Oat, Wild plant response rating (wild oat (Avena fatua); postemergence, 0-100 scale) | Plant response rating, Oat, Wild (wild oat (Avena fatua); [23])
35: Plant response rating, Rice (rice (Oryza sativa); [15])
70: Plant response rating, Rice (rice (Oryza sativa); [13]) | Crabgrass, Large plant response rating ([8]; postemergence, 0-100 scale)
0: Plant response rating, Sedge, Umbrella [1, 12] | Plant response rating, Sedge, Umbrella [1, 13] | Plant response rating, Sedge, Umbrella [1, 14] | Plant response rating, Sedge, Umbrella [1, 15] | Plant response rating, Ducksalad [3, 12] | Plant response rating, Ducksalad [3, 13] | Plant response rating, Ducksalad [3, 14] | Plant response rating, Ducksalad [3, 15] | Plant response rating, Russian Thistle [4, 16] | Plant response rating, Russian Thistle [4, 17] | Plant response rating, Russian Thistle ([4]; 62 g ai/ha, scale 0 to 100) | Russian Thistle plant response rating ([4]; 8 g ai/ha, scale 0 to 100) | Corn plant response rating (corn (Zea mays); postemergence, 0-100 scale) | Plant response rating, Corn (corn (Zea mays); [18]) | Plant response rating, Nightshade, E. B. [6, 16] | Plant response rating, Nightshade, E. B. [6, 17] | Plant response rating, Nightshade, E. B. ([6]; 62 g ai/ha, scale 0 to 100) | Nightshade, E. B. plant response rating ([6]; 8 g ai/ha, scale 0 to 100) | Bromegrass, Downy plant response rating ([9]; Preemergence, scale 0 to 100) | Pigweed plant response rating ([10]; postemergence, 0-100 scale) | Plant response rating, Pigweed [10, 18] | Plant response rating, Pigweed [10, 19] | Plant response rating, Pigweed [10, 20] | Plant response rating, Pigweed [10, 21] | Plant response rating, Pigweed [10, 24] | Plant response rating, Pigweed [10, 23] | Pigweed plant response rating ([10]; Preemergence, scale 0 to 100)
50: Bromegrass, Downy plant response rating ([9]; postemergence, 0-100 scale)
85: Plant response rating, Barnyardgrass [2, 12] | Foxtail, Green plant response rating ([5]; postemergence, 0-100 scale) | Plant response rating, Corn (corn (Zea mays); [22]) | Plant response rating, Oat, Wild (wild oat (Avena fatua); [21])
60: Plant response rating, Barnyardgrass [2, 15] | Plant response rating, Bromegrass, Downy [9, 18] | Plant response rating, Bromegrass, Downy [9, 21] | Oat, Wild plant response rating (wild oat (Avena fatua); Preemergence, scale 0 to 100)
55: Corn plant response rating (corn (Zea mays); Preemergence, scale 0 to 100)
80: Plant response rating, Rice (rice (Oryza sativa); [14]) | Plant response rating, Bromegrass, Downy [9, 19] | Plant response rating, Bromegrass, Downy [9, 22]
75: Plant response rating, Corn (corn (Zea mays); [21])
98: Cupgrass, Woolly plant response rating ([7]; postemergence, 0-100 scale) | Plant response rating, Cupgrass, Woolly [7, 18] | Plant response rating, Crabgrass, Large [8, 18] | Plant response rating, Crabgrass, Large [8, 19]
45: Crabgrass, Large plant response rating ([8]; Preemergence, scale 0 to 100)
